In ChEMBL document CHEMBL3751753, “Synthesis and biological evaluation of 4-[(benzimidazol-1-yl) methyl]biphenyl-2-amides as dual angiotensin II and endothelin A receptor antagonists” (Medchemcomm, 2015):
Calls of active or inactive are those of the source. No cut-off for these calls is given here.

Legend:
[1] = target: T1, Type-1 angiotensin II receptor (Homo sapiens, UniProt P30556); test: Displacement of 125I-labelled Sar1-Ile8-angiotensin-2 from human AT1 receptor
T1 sequence (P30556 whole entry): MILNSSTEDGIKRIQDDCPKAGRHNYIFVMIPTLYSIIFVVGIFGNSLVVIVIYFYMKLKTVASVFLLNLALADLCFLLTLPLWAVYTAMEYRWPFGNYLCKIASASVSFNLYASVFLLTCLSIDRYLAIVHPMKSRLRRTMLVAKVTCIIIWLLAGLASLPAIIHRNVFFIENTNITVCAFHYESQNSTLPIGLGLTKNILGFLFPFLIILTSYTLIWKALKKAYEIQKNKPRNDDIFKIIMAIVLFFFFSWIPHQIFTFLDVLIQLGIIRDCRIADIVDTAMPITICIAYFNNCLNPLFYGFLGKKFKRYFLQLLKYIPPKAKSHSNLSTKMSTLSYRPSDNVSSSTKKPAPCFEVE

Endothelin-1 receptor = target: T2, Endothelin-1 receptor (Homo sapiens, UniProt P25101); test: Displacement of 125I-labelled endothelin-1 from human ETA receptor expressed in CHOK1 cell membranes; set-up: species or system CHO-K1
T2 sequence (P25101 whole entry): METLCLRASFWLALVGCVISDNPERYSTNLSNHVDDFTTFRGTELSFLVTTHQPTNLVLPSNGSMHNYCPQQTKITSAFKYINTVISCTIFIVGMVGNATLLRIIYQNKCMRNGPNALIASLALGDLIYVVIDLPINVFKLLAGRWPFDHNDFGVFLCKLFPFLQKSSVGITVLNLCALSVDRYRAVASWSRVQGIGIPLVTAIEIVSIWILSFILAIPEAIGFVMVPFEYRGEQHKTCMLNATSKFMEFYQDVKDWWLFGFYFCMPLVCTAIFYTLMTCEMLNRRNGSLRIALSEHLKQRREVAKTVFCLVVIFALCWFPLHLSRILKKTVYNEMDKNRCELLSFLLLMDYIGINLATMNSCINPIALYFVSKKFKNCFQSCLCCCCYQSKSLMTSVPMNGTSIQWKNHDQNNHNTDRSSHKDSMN

Rattus norvegicus [2] = test: Antihypertensive activity in spontaneous hypertensive rat assessed as mean blood pressure at 20 mg/kg, po after 6 hrs; assay type: functional
Rattus norvegicus [3] = test: Antihypertensive activity in spontaneous hypertensive rat assessed as heart rate at 20 mg/kg, po after 1 to 24 hrs; assay type: functional, organism-based
Rattus norvegicus [4] = test: Antihypertensive activity in spontaneous hypertensive rat assessed as mean blood pressure at 20 mg/kg, po after 24 hrs; assay type: functional, organism-based
Rattus norvegicus [5] = test: Antihypertensive activity in spontaneous hypertensive rat assessed as time duration of lowering mean blood pressure >20 mmHg at 20 mg/kg, po; assay type: functional
Rattus norvegicus [6] = test: Antihypertensive activity in spontaneous hypertensive rat assessed as mean blood pressure at 20 mg/kg, po after 4 hrs; assay type: functional

Row | SMILES | IC50 [1] [nM] | IC50 (Endothelin-1 receptor) [nM] | other results
1 | CCCc1nc2c(C)cc(C(=O)NCCc3ccc(OC)cc3)cc2n1Cc1ccc(-c2ccccc2C(=O)Nc2nnn[nH]2)cc1 | 87.8 | 13000 | –
2 | CCCc1nc2c(C)cc(C(=O)Nc3ccccc3OC)cc2n1Cc1ccc(-c2ccccc2C(=O)Nc2nnn[nH]2)cc1 | 347 | 886 | –
3 | CCCc1nc2c(C)cc(C(=O)NCCc3ccc(F)cc3)cc2n1Cc1ccc(-c2ccccc2C(=O)Nc2nnn[nH]2)cc1 | 140 | > 20000 | –
4 | CCCCNC(=O)c1cc(C)c2nc(CCC)n(Cc3ccc(-c4ccccc4C(=O)Nc4nnn[nH]4)cc3)c2c1 | 439 | > 20000 | –
5 | CCCc1nc2c(C)cc(C(=O)NC(C)C)cc2n1Cc1ccc(-c2ccccc2C(=O)Nc2nnn[nH]2)cc1 | 161 | > 20000 | –
6 | CCCc1nc2c(C)cc(C(=O)NCCc3ccccc3F)cc2n1Cc1ccc(-c2ccccc2C(=O)Nc2nnn[nH]2)cc1 | 90 | 11000 | –
7 | CCCc1nc2c(C)cc(C(=O)Nc3ccccc3)cc2n1Cc1ccc(-c2ccccc2C(=O)Nc2nnn[nH]2)cc1 | 73.7 | 14000 | –
8 | CCCc1nc2c(C)cc(C(=O)NCc3ccc(OC)cc3)cc2n1Cc1ccc(-c2ccccc2C(=O)Nc2nnn[nH]2)cc1 | 550 | > 20000 | –
9 | CCCc1nc2c(C)cc(C(=O)NCCc3ccc(OC)c(OC)c3)cc2n1Cc1ccc(-c2ccccc2C(=O)Nc2nnn[nH]2)cc1 | 93 | > 20000 | –
10 | CCCc1nc2c(C)cc(C(=O)NC(C)(C)C)cc2n1Cc1ccc(-c2ccccc2C(=O)Nc2nnn[nH]2)cc1 | 390 | > 20000 | –
11 | CCCCC1=NC2(CCCC2)C(=O)N1Cc1ccc(-c2ccccc2-c2nnn[nH]2)cc1 [IRBESARTAN] | – | – | Activity (Rattus norvegicus [3]): Active; Activity (Rattus norvegicus [6]): 20 mmHg; Activity (Rattus norvegicus [4]): Active; Time (Rattus norvegicus [5]): 1 h
12 | CCCc1nc2c(C)cc(C(=O)NCc3ccccc3)cc2n1Cc1ccc(-c2ccccc2C(=O)Nc2nnn[nH]2)cc1 | 82 | 10 | –
13 | CCCNC(=O)c1cc(C)c2nc(CCC)n(Cc3ccc(-c4ccccc4C(=O)Nc4nnn[nH]4)cc3)c2c1 | 363 | > 20000 | –

More lines, in order of falling IC50 [1], values ahead:

Row | IC50 [1] [nM] | IC50 (Endothelin-1 receptor) [nM] | SMILES | other results
14 | 73.3 | 7200 | CCCc1nc2c(C)cc(C(=O)NCc3ccccc3OC)cc2n1Cc1ccc(-c2ccccc2C(=O)Nc2nnn[nH]2)cc1 | –
15 | 69.4 | 7100 | CCCc1nc2c(C)cc(C(=O)NCCN3CCCC3)cc2n1Cc1ccc(-c2ccccc2C(=O)Nc2nnn[nH]2)cc1 | –
16 | 67.5 | > 20000 | CCCc1nc2c(C)cc(C(=O)NCCN3CCCCC3)cc2n1Cc1ccc(-c2ccccc2C(=O)Nc2nnn[nH]2)cc1 | –
17 | 53.9 | 625 | CCCc1nc2c(C)cc(C(=O)NCc3cccc(OC)c3)cc2n1Cc1ccc(-c2ccccc2C(=O)Nc2nnn[nH]2)cc1 | –
18 | 53.5 | 9100 | CCCc1nc2c(C)cc(C(=O)NCCN3CCN(C)CC3)cc2n1Cc1ccc(-c2ccccc2C(=O)Nc2nnn[nH]2)cc1 | –
19 | 44 | 165 | CCCc1nc2c(C)cc(C(=O)NCCN3CCOCC3)cc2n1Cc1ccc(-c2ccccc2C(=O)Nc2nnn[nH]2)cc1 | –
20 | 36.9 | > 20000 | CCCc1nc2c(C)cc(C(=O)NCCc3cccc(OC)c3)cc2n1Cc1ccc(-c2ccccc2C(=O)Nc2nnn[nH]2)cc1 | –
21 | 32.9 | 10000 | CCCc1nc2c(C)cc(C(=O)NCc3ccc(OC)c(OC)c3)cc2n1Cc1ccc(-c2ccccc2C(=O)Nc2nnn[nH]2)cc1 | –
22 | 30.7 | > 20000 | CCCc1nc2c(C)cc(C(=O)NCCc3cc(OC)ccc3OC)cc2n1Cc1ccc(-c2ccccc2C(=O)Nc2nnn[nH]2)cc1 | –
23 | 26.1 | 7000 | CCCc1nc2c(C)cc(C(=O)NCCc3ccccc3OC)cc2n1Cc1ccc(-c2ccccc2C(=O)Nc2nnn[nH]2)cc1 | –
24 | 3.9 | 126 | CCCc1nc2c(C)cc(C(=O)NCCc3ccccc3)cc2n1Cc1ccc(-c2ccccc2C(=O)Nc2nnn[nH]2)cc1 | Activity (Rattus norvegicus [2]): 24 mmHg; Activity (Rattus norvegicus [3]): Active; Activity (Rattus norvegicus [4]): Active; Time (Rattus norvegicus [5]): 4 h
